Laboratory results reported in US20240228555A9, “ANTIMICROBIAL PEPTIDOMIMETICS” (Basilea Pharmaceutica International AG, Allschwil, priority 2020, published 2024).
Like-named read-outs stand apart in the source and are kept apart here. Where a SMILES comes first, the peptide text is derived from it. Where no end group is shown, it is not given here. [ ]: non-standard residue; d: D form. Hyp = O=C(O)[C@@H]1C[C@@H](O)CN1; Pen = CC(C)(S)[C@H](N)C(=O)O; dDab = NCC[C@@H](N)C(=O)O; Dab = NCC[C@H](N)C(=O)O

Columns and labels:
[1] = tested on: Escherichia coli MCR-1 Af 45; details: Mueller-Hinton broth II, no visible growth after 18-20 hours at 35° C.
Outline: (§1)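 Activity is measured against peptides serially diluted two-fold in water with 0.002% final Polysorbate 80. The cells are in cation-adjusted MHII broth at roughly 5×10^5 CFU/mL, prepared from a 0.5 McFarland suspension in 0.85% NaCl.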

[2] = tested on: Escherichia coli ATCC 25922
Outline: as §1

[3] = tested on: Klebsiella pneumoniae SSI3010
Outline: as §1

[4] = tested on: human red blood cells (hRBC); assay type: cell-based
Outline: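 PBS-washed human erythrocytes (20% v/v) were incubated with compounds at 200 μg/mL for 1 h at 37° C with shaking. Supernatant OD540 was read after 8-fold dilution; hemolysis % = OD540 peptide / OD540 of the 100% lysis control (2.5% Triton X-100 in H2O) ×100, with PBS as 0%.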

[5] = red cells of human, 1 h, 0.2 g/L
[6] = Mueller-Hinton broth II, no visible growth after 18-20 hours at 35° C.

| Compound | Escherichia coli MCR-1 Af 45 MIC [1] [µg/mL] | Escherichia coli ATCC 25922 MIC ([2]; ATCC 25922) [µg/mL] | Klebsiella pneumoniae SSI3010 MIC ([3]; SSI3010) [µg/mL] | Hemolysis at 0.2 g/L [4, 5] [%] | Escherichia coli ATCC 25922 MIC [2, 6] [µg/mL] | Klebsiella pneumoniae SSI3010 MIC [3, 6] [µg/mL] | Hemolysis at 0.2 g/L [4] [%] |
| --- | --- | --- | --- | --- | --- | --- | --- |
| CC[C@H](C)[C@H](NC(=O)[C@@H](NC(=O)[C@@H]1C[C@@H](O)CN1C(=O)[C@@H](N)C(C)C)[C@@H](C)CC)C(=O)N[C@@H](Cc1ccc(O)cc1)C(=O)N[C@@H]1C(=O)N[C@@H](CC(N)=O)C(=O)N[C@@H](CCCNC(=N)N)C(=O)N[C@@H](CCN)C(=O)N[C@@H]([C@@H](C)O)C(=O)N[C@H](CCN)C(=O)N[C@@H](CCCCN)C(=O)N[C@H](C(=O)N[C@@H](CCN)C(=O)N[C@@H](CCCNC(N)=O)C(=O)N[C@@H](Cc2ccc(O)cc2)C(=O)O)CSSC1(C)C [Example 73, Val-Hyp-Ile-Ile-Tyr-Pen-Asn-Arg-Dab-Thr-^DDab-Lys-Cys-Dab-Cit-Tyr] (HELM PEPTIDE1{V.[Hyp].I.I.Y.[Pen].N.R.[Dab].T.[NCC[C@@H](N[*:1])C(=O)[*:2]].K.C.[Dab].[Cit].Y}$PEPTIDE1,PEPTIDE1,6:R3-13:R3$$$V2.0) | 0.25 | 0.5 | 0.5 | <1 | – | – | – |
| CC[C@H](C)[C@@H]1NC(=O)[C@@H](NC(=O)[C@H](Cc2ccc(O)cc2)NC(=O)[C@@H](NC(=O)[C@@H](NC(=O)[C@@H]2C[C@@H](O)CN2C(=O)[C@@H](N)C(C)C)[C@@H](C)CC)[C@@H](C)O)C(C)(C)SSC[C@@H](C(=O)N[C@@H](CCN)C(=O)N[C@@H](CCCN)C(=O)N[C@@H](Cc2ccc(O)cc2)C(=O)O)NC(=O)[C@H](CCCCN)NC(=O)[C@@H](CCN)NC(=O)[C@H]([C@@H](C)O)NC(=O)[C@H](CCN)NC(=O)[C@H](CCCNC(=N)N)NC1=O [Example 88, Val-Hyp-Ile-Thr-Tyr-Pen-Ile-Arg-Dab-Thr-^DDab-Lys-Cys-Dab-Orn-Tyr] (HELM PEPTIDE1{V.[Hyp].I.T.Y.[Pen].I.R.[Dab].T.[NCC[C@@H](N[*:1])C(=O)[*:2]].K.C.[Dab].[Orn].Y}$PEPTIDE1,PEPTIDE1,6:R3-13:R3$$$V2.0) | 0.0625 | 0.125 | 0.25 | <1 | – | – | – |
| V[Hyp]ITY[Pen]NR[Dab]T[dDab]NC[Dab]RY (cysteine pairing not given here) [Example 40] | 0.25 | – | – | – | 0.25 | 0.5 | 0 |
| CC[C@H](C)[C@H](NC(=O)[C@@H]1C[C@@H](N)CN1C(=O)[C@@H](N)C(C)C)C(=O)N[C@H](C(=O)N[C@@H](Cc1ccc(O)cc1)C(=O)N[C@@H]1C(=O)N[C@@H](CC(N)=O)C(=O)N[C@@H](CCCNC(=N)N)C(=O)N[C@@H](CCN)C(=O)N[C@@H]([C@@H](C)O)C(=O)N[C@H](CCN)C(=O)N[C@@H](CCCCN)C(=O)N[C@H](C(=O)N[C@@H](CO)C(=O)N[C@@H](CO)C(=O)N[C@@H](Cc2ccc(O)cc2)C(=O)O)CSSC1(C)C)[C@@H](C)O [Example 103, Val-Pro((4R)NH2)-Ile-Thr-Tyr-Pen-Asn-Arg-Dab-Thr-^DDab-Lys-Cys-Ser-Ser-Tyr] (HELM PEPTIDE1{V.[N[C@@H]1C[C@@H](C(=O)[*:2])N([*:1])C1].I.T.Y.[Pen].N.R.[Dab].T.[NCC[C@@H](N[*:1])C(=O)[*:2]].K.C.S.S.Y}$PEPTIDE1,PEPTIDE1,6:R3-13:R3$$$V2.0) | 0.125 | 0.5 | 0.5 | <1 | – | – | – |
| CC[C@H](C)[C@H](NC(=O)[C@@H](NC(=O)[C@@H]1C[C@@H](O)CN1C(=O)[C@@H](N)C(C)C)[C@@H](C)CC)C(=O)N[C@@H](Cc1ccc(O)cc1)C(=O)N[C@@H]1C(=O)N[C@@H](CC(N)=O)C(=O)N[C@@H](CCCNC(=N)N)C(=O)N[C@@H](CCN)C(=O)N[C@@H]([C@@H](C)O)C(=O)N[C@H](CCN)C(=O)N[C@@H](CCCNC(N)=O)C(=O)N[C@H](C(=O)N[C@@H](CCN)C(=O)N[C@@H](CCCNC(=N)N)C(=O)N[C@@H](Cc2ccc(O)cc2)C(=O)O)CSSC1(C)C [Example 98, Val-Hyp-Ile-Ile-Tyr-Pen-Asn-Arg-Dab-Thr-^DDab-Cit-Cys-Dab-Arg-Tyr] (HELM PEPTIDE1{V.[Hyp].I.I.Y.[Pen].N.R.[Dab].T.[NCC[C@@H](N[*:1])C(=O)[*:2]].[Cit].C.[Dab].R.Y}$PEPTIDE1,PEPTIDE1,6:R3-13:R3$$$V2.0) | 0.25 | 0.25 | 0.5 | <1 | – | – | – |
| CC[C@H](C)[C@H](NC(=O)[C@@H]1C[C@@H](O)CN1C(=O)[C@@H](N)C(C)C)C(=O)N[C@H](C(=O)N[C@@H](Cc1ccc(O)cc1)C(=O)N[C@@H]1C(=O)N[C@@H](CC(N)=O)C(=O)N[C@@H](CCCNC(=N)N)C(=O)N[C@@H](CCN)C(=O)N[C@@H]([C@@H](C)O)C(=O)N[C@H](CCNC(C)C)C(=O)N[C@@H](CCCCN)C(=O)N[C@H](C(=O)N[C@@H](CCN)C(=O)N[C@@H](CCCNC(=N)N)C(=O)N[C@@H](Cc2ccc(O)cc2)C(=O)O)CSSC1(C)C)[C@@H](C)O [Example 138, Hyp-Ile-Thr-Tyr-Pen-Asn-Arg-Dab-Thr-^DDab(iPr)-Lys-Cys-Dab-Arg-Tyr] (HELM PEPTIDE1{V.[Hyp].I.T.Y.[Pen].N.R.[Dab].T.[CC(C)NCC[C@@H](N[*:1])C(=O)[*:2]].K.C.[Dab].R.Y}$PEPTIDE1,PEPTIDE1,6:R3-13:R3$$$V2.0) | 0.125 | 0.125 | 0.5 | <1 | – | – | – |
| CC[C@H](C)[C@H](NC(=O)[C@@H](NC(=O)[C@@H]1C[C@@H](O)CN1C(=O)[C@@H](N)C(C)C)[C@@H](C)CC)C(=O)N[C@@H](Cc1ccc(O)cc1)C(=O)N[C@@H]1C(=O)N[C@@H](CC(N)=O)C(=O)N[C@@H](CCCNC(=N)N)C(=O)N[C@@H](CCN)C(=O)N[C@@H]([C@@H](C)O)C(=O)N[C@H](CCN)C(=O)N[C@@H]([C@@H](C)CC)C(=O)N[C@H](C(=O)N[C@@H](CCN)C(=O)N[C@@H](CCCN)C(=O)N[C@@H](Cc2ccc(O)cc2)C(=O)O)CSSC1(C)C [Example 97, Val-Hyp-Ile-Ile-Tyr-Pen-Asn-Arg-Dab-Thr-^DDab-Ile-Cys-Dab-Orn-Tyr] (HELM PEPTIDE1{V.[Hyp].I.I.Y.[Pen].N.R.[Dab].T.[NCC[C@@H](N[*:1])C(=O)[*:2]].I.C.[Dab].[Orn].Y}$PEPTIDE1,PEPTIDE1,6:R3-13:R3$$$V2.0) | 0.25 | 0.25 | 0.5 | <1 | – | – | – |
| CC[C@H](C)[C@H](NC(=O)[C@@H]1C[C@@H](F)CN1C(=O)[C@@H](N)C(C)C)C(=O)N[C@H](C(=O)N[C@@H](Cc1ccc(O)cc1)C(=O)N[C@@H]1C(=O)N[C@@H](CC(N)=O)C(=O)N[C@@H](CCCNC(=N)N)C(=O)N[C@@H](CCN)C(=O)N[C@@H]([C@@H](C)O)C(=O)N[C@H](CCN)C(=O)N[C@@H](CCCCN)C(=O)N[C@H](C(=O)N[C@@H](CCN)C(=O)N[C@@H](CCCNC(=N)N)C(=O)N[C@@H](Cc2ccc(O)cc2)C(=O)O)CSSC1(C)C)[C@@H](C)O [Example 131, Val-Pro((4R)F)-Ile-Thr-Tyr-Pen-Asn-Arg-Dab-Thr-^DDab-Lys-Cys-Dab-Arg-Tyr] (HELM PEPTIDE1{V.[O=C([C@@H]1C[C@@H](F)CN1[*:1])[*:2]].I.T.Y.[Pen].N.R.[Dab].T.[NCC[C@@H](N[*:1])C(=O)[*:2]].K.C.[Dab].R.Y}$PEPTIDE1,PEPTIDE1,6:R3-13:R3$$$V2.0) | 0.125 | 0.25 | 0.5 | <1 | – | – | – |
| CC[C@H](N)C(=O)N1C[C@H](O)C[C@H]1C(=O)N[C@H](C(=O)N[C@H](C(=O)N[C@@H](Cc1ccc(O)cc1)C(=O)N[C@@H]1C(=O)N[C@@H](CC(N)=O)C(=O)N[C@@H](CCCNC(=N)N)C(=O)N[C@@H](CCN)C(=O)N[C@@H]([C@@H](C)O)C(=O)N[C@H](CCN)C(=O)N[C@@H](CCCCN)C(=O)N[C@H](C(=O)N[C@@H](CCN)C(=O)N[C@@H](CCCNC(=N)N)C(=O)N[C@@H](Cc2ccc(O)cc2)C(=O)O)CSSC1(C)C)[C@@H](C)CC)[C@@H](C)CC [Example 79, Abu-Hyp-Ile-Ile-Tyr-Pen-Asn-Arg-Dab-Thr-^DDab-Lys-Cys-Dab-Arg-Tyr] (HELM PEPTIDE1{[Abu].[Hyp].I.I.Y.[Pen].N.R.[Dab].T.[NCC[C@@H](N[*:1])C(=O)[*:2]].K.C.[Dab].R.Y}$PEPTIDE1,PEPTIDE1,6:R3-13:R3$$$V2.0) | 0.125 | 0.125 | 0.5 | <1 | – | – | – |
| CC[C@H](C)[C@H](NC(=O)[C@@H](NC(=O)[C@@H]1C[C@@H](O)CN1C(=O)[C@@H](N)C(C)C)[C@@H](C)CC)C(=O)N[C@@H](Cc1ccc(O)cc1)C(=O)N[C@@H]1C(=O)N[C@@H](CC(N)=O)C(=O)N[C@@H](CCCNC(=N)N)C(=O)N[C@@H](CCCCN)C(=O)N[C@@H]([C@@H](C)O)C(=O)N[C@H](CCN)C(=O)N[C@@H](CCCCN)C(=O)N[C@H](C(=O)N[C@@H](CCCCN)C(=O)N[C@@H](CCCNC(=N)N)C(=O)N[C@@H](Cc2ccc(O)cc2)C(=O)O)CSSC1(C)C [Example 82, Val-Hyp-Ile-Ile-Tyr-Pen-Asn-Arg-Lys-Thr-^DDab-Lys-Cys-Lys-Arg-Tyr] (HELM PEPTIDE1{V.[Hyp].I.I.Y.[Pen].N.R.K.T.[NCC[C@@H](N[*:1])C(=O)[*:2]].K.C.K.R.Y}$PEPTIDE1,PEPTIDE1,6:R3-13:R3$$$V2.0) | 0.125 | 0.125 | 0.25 | <1 | – | – | – |
